Experimental findings from patent US20030225002A1, “Co-therapy for the treatment of migraine comprising anticonvulsant derivatives and anti-migraine agents” (priority 2002, published 2003) are described below.

In test [1] the test system is persistent daily headache with migraine features. Kind of test: Case Study 1: persistent daily headache with migraine features. The class given is in vivo, human. To be noted: topiramate 75 mg/day with INDERAL at 20 mg/day. The source says:
The patient was a person with persistent daily headache with migraine features.

In the next test the test system is subjects with migraine. Kind of test: Clinical Study Trials #1 and #2: duration of migraine headaches, topiramate with triptan rescue therapy. The format is in vivo, human. The settings on record: for Duration of Migraine Headaches, Baseline / Duration of Migraine Headaches, Double-Blind: triptan rescue therapy; for Duration of Migraine Headaches, Double-Blind: Double-Blind Phase; for Duration of Migraine Headaches, Difference: Double-Blind minus Baseline. The protocol:
The primary objective of these studies was to evaluate the safety and efficacy of three doses of topiramate (50, 100, and 200 mg/day) versus placebo in the prophylaxis of migraine based on the change in the monthly (28 day) migraine period rate from the Prospective Baselin,e Period to the Double-Blind Phase. The secondary objectives for the studies were to assess dose response relationship, and to evaluate the effect of prophylactic treatment with topiramate (50, 100, and 200 mg/day) versus placebo on Health-Related Quality of Life (HRQL).
The studies were randomized, double-blind, placebo-controlled, parallel-group, multicenter studies. Male and female subjects were randomized equally to the four treatment groups.
While the IHS criteria was used to establish the diagnosis at study entry, the evaluation of efficacy was based on migraine periods. A migraine period was defined as the length of time between the onset and cessation of painful migraine symptoms. This period could last up to, but no longer than, 24 hours. If the painful symptoms persisted more than 24 hours after their initial onset, this was considered to be a new, distinct migraine period. If symptoms recurred within 24 hours of the initial onset, this was considered part of the same, initial period.
Subjects who completed the Baseline Phase and met the entry criteria were randomized to one of four treatment groups: 50 mg/day topiramate, 100 mg/day topiramate, 200 mg/day topiramate or placebo. The Double-Blind Phase had two periods: Titration and Maintenance, which are described in more detail below.
The Titration Period immediately followed the Baseline Phase and extended for eight weeks (56 days). During this period, subjects randomized to topiramate were started at a dose of 25 mg/day and the daily dose was increased by 25 mg weekly until they reach their assigned dose (or maximum tolerated dose, whichever is less). From the third week of Titration until the end of the Maintenance Period, a maximum of two dose level reductions were permitted for unacceptable tolerability problems. If the subject was still in the Titration Period after a dose reduction, rechallenge may have occurred in an attempt to achieve the subject's assigned dose, and, if unsuccessful, the dose may have been reduced again to the original reduced dose. Subjects who had their study medication dose decreased twice, and were still experiencing unacceptable tolerability problems that warranted additional dose reductions, exited the study. Clinic visits occurred on Day 29 (Visit 3) and Day 57 (Visit 4/End of Titration).
During this 18-week period, the subjects remained on the dose of study medication reached at the end of the Titration Period (the assigned dose or the maximum tolerated dose). If the subject experienced unacceptable tolerability problems, the dose was reduced, only one dose reduction was permitted in the maintenance. No rechallenge was permitted during the Maintenance Period, so that subject continued on the reduced dose for the remainder of the period. Subjects who already had their study medication dose decreased by two levels, and were still experiencing unacceptable tolerability problems that warranted additional dose reductions exited the study. Clinic visits occurred on Day 85 (Visit 5), Day 113 (Visit 6), Day 141 (Visit 7) and Day 183 (Visit 8/ Double-Blind Final Visit or Early Withdrawal).
Subjects were randomized to one of four treatment groups: a) placebo, b) 50 mg/day topiramate, c) 100 mg/day topiramate, or d) 200 mg/day topiramate. All subjects received study medication in a b.i.d. dosing regimen except during the first week of Titration, during which they took single evening doses.
In keeping with good pain management practices, subjects enrolled in these studies were permitted to take acute abortive/rescue medication as indicated for the treatment of pain during migraine/headache attacks. […]

With `CC1(C)O[C@@H]2[C@@H](CO[C@@]3(COS(N)(=O)=O)OC(C)(C)O[C@@H]23)O1` [topiramate, 2,3:4,5-bis-O-(1-methylethylidene)-β-D-fructopyranose sulfamate], in test [1], the “Effect on daily headaches” value is “significant improvement and resolution of the daily headaches”; the “Migraine headache frequency on treatment” value is reported as “approximately one per week”. Besides, the “Effect on duration of headaches (in words)” value with subjects with migraine (200 mg topiramate treatment) was “duration of headaches increased”. For the same compound, in the test on subjects with migraine (TPM 50 mg), the “Duration of Migraine Headaches, Baseline” value is 12.77 h; the “Duration of Migraine Headaches, Double-Blind” value (shortened to “Duration … Double-Blind”) worked out at 11.60 h; the “Duration of Migraine Headaches, Difference” value (shortened to “Duration … Difference”) is -1.17 h. Besides, in the test on subjects with migraine (TPM 100 mg), the “Duration of Migraine Headaches, Baseline” value came out at 14.75 h; the “Duration … Double-Blind” value came out at 13.17 h; the “Duration … Difference” value was -1.59 h. For the same compound, in the test on subjects with migraine (TPM 200 mg), the “Duration of Migraine Headaches, Baseline” value was 10.84 h; the “Duration … Double-Blind” value was 12.05 h; the “Duration … Difference” value is listed as “+1.21 hours”. For the same compound, the “Effect on duration of a migraine headache (in words)” value in the test on subjects with migraine (topiramate with triptan rescue medications, groups taking 50 mg and 100 mg) was “numerically measurable decrease in the duration of a migraine headache”.
